Data reported in patent US20180146698A1, “FORMULA FEED FOR POULTRY” (JXTG Nippon Oil & Energy Corporation, priority 2015, published 2018).

Key:
Julia Light hens [1] = experiment: Chicken egg color enhancement test 1: yolk color fan value, low- and standard-corn-content feed; assay type: in vivo, chickens
Protocol: A preparation of dry cells of a Paracoccus bacterium (with an astaxanthin content of 2%) and a paprika colorant preparation (with a t-capsanthin content of 0.25%) were used as coloring agents for evaluation. Cells of a nitrosoguanidine mutant strain obtained from the Paracoccus carotinifaciens E-396 strain (FERM BP-4283) were used as carotenoid-producing Paracoccus bacterial cells for a preparation of dry cells of a Paracoccus bacterium. The preparation was cultured in a seed flask medium and then cultured in a main culture medium at 28° C. under aerobic conditions until the bacterial cell concentration reached the maximum level. Next, the cultured cells were collected and recovered using a centrifuge. The recovered Paracoccus bacterial cells were dried using a double drum dryer at a drum rotation speed of 3.5 rpm and a drum temperature of 140° C. The average particle size (volume particle size D50) of the obtained power was approximately […]. The powder was further finely powderized (pulverized) using a jet mill (Seishin Enterprise Co., Ltd.) so that the average particle size (D50) became 9 μm. The obtained product was used as a preparation of dry cells of a Paracoccus bacterium. As a paprika colorant preparation, Color Up (a product with a total xanthophyll concentration of 5 g/kg, Kohkin Chemical Co., Ltd.) was used. The above preparations were added to a low-corn-content feed and a standard-corn-content feed listed in Table 1, thereby preparing formula feeds each containing astaxanthin or t-capsanthin at a final concentration of 1, 2, 4, or 8 ppm. Table 2 lists measured concentrations of astaxanthin and t-capsanthin contained in the actually produced formula feeds. Julia Light hens were used for tests. Ten chickens were provided for each test plot. The acclimatization period was set to 2 weeks. Eggs collected in Week 2, during which the color fan value became stabilized, or later, were evaluated. Eggs were collected from each test plot. The color fan values of 10 chicken eggs were measured using Egg Multitester EMT-7300 (JA Z-Tamago Co., Ltd.) for each test plot. The yolk carotenoid concentration was determined for 3 eggs for each test plot. FIGS. 1 and 2 show the relationship between the concentrations of astaxanthin and t-capsanthin in both feeds and the yolk color fan values of the obtained eggs. Based on the results of FIGS. 1 and 2, the concentrations of astaxanthin and t-capsanthin to be added to the low-corn-content feed in order to achieve a desired color fan value of 10 to 15 were calculated (Table 3). For example, in order to achieve a color fan value of 13, astaxanthin may be added to the low-corn-content feed so as to result in a final concentration of 2.2 ppm. Meanwhile, t-capsanthin needs to be added so as to result in a final concentration of 4.3 ppm.

Julia Light hens [2] = experiment: Yolk carotenoid concentration by HPLC, eggs of Example 1; assay type: in vivo, chickens; settings: colorant added at 1 to 8 ppm
Protocol: Eggs were collected from each test plot. The color fan values of 10 chicken eggs were measured using Egg Multitester EMT-7300 (JA Z-Tamago Co., Ltd.) for each test plot. The yolk carotenoid concentration was determined for 3 eggs for each test plot.
Carotenoid quantities in the yolk and each feed were determined via high performance liquid chromatography (HPLC) as described below.
Two columns (Inertsil SIL-100A, 5 μm (ϕ 4.6×250 mm), GL Sciences) were connected in series for use. Elution was carried out with the introduction of an n-hexane/tetrahydrofuran/methanol liquid mixture (40:20:1) as a mobile phase at a constant temperature (around room temperature) and a flow rate of 1.0 mL per minute. Upon determination, samples were each dissolved in tetrahydrofuran and appropriately diluted with the mobile phase such that injection volume was adjusted to 20 μL. The detection for column eluate was carried out at a wavelength of 470 nm.
The yolk carotenoid concentration of eggs obtained in Example 1 was determined by the method described in Example 1 for three eggs for each test plot.
The standard-corn-content feed and the low-corn-content feed were compared in terms of the colorant concentration in the yolk when the coloring agents used in Example 1 were added to each feed at concentrations of 1 to 8 ppm.

chickens [3] = experiment: Chicken egg color enhancement test 2: yolk color fan value, feeds with corn contents of 30% to 50%; assay type: in vivo; settings: for color fan value compared with t-capsanthin: corn contents of 30% and 50%
Protocol: The effects of the present invention were confirmed using feeds with corn contents of 30% to 50% in the same manner as in Example 1. Formula feeds were prepared by adding astaxanthin or t-capsanthin to feeds with the compositions listed in Table 5 so as to result in a final concentration of 1 to 16 ppm. In this Example, the feeds were the same except the corn content and the content of brown rice, which is added depending on a decrease in the corn content, and corn-derived corn gluten meal was not mixed therein. FIGS. 8a and 8b show the relationship between the astaxanthin and t-capsanthin concentrations in the feeds with corn contents of 30% and 50% and the yolk color fan values for the obtained eggs. Based on the results of FIGS. 8a and 8b, the concentrations of astaxanthin and t-capsanthin to be added to a feed in order to achieve a desired color fan value of 10 to 15 were calculated for feeds with corn contents of 30% and 50% (Table 6).

chickens [4] = experiment: Chicken egg color enhancement test 3: yolk color fan value, feeds with corn contents of 0% to 30%; assay type: in vivo; settings: coloring agent 2 ppm or 4 ppm
Protocol: The effects of the present invention were confirmed using feeds with corn contents of 0% to 30% in the same manner as in Example 1.
Formula feeds were prepared by adding astaxanthin or t-capsanthin to feeds with the compositions listed in Table 7 so as to result in a final concentration of 2 ppm or 4 ppm. In this Example, the feeds were the same except the corn content and the content of brown rice, which is added depending on a decrease in the corn content, and corn-derived corn gluten meal was not mixed therein.

chickens [5] = experiment: Yolk color measurement using colorimeter 1 (eggs of Example 5); assay type: in vivo; settings: coloring agent 8 ppm or less; corn content 30% to 50%
Protocol: The yolk color was measured using a colorimeter (CM-700d, Konica Minolta Inc.) for eggs obtained in Example 5 and eggs obtained by using formula feeds listed in Table 5, which had been prepared by adding astaxanthin or t-capsanthin to a feed with a corn content of 40% so as to result in a final concentration of 2 ppm. FIGS. 9a to 9c show the measurement results of the L*, a*, and b* values, respectively.

chickens [6] = experiment: Yolk carotenoid content and composition 3 (eggs of Example 8); assay type: in vivo; settings: 2 ppm or 4 ppm; corn contents of 0% to 30%; fed 2 to 4 weeks
Protocol: The yolk carotenoid concentration in eggs obtained in Example 8 was determined for five eggs for each test plot in the same manner as in Example 1.

chickens [7] = experiment: Yolk color measurement using colorimeter 2 (eggs of Example 8); assay type: in vivo; settings: 2 ppm or 4 ppm; corn contents of 0% to 30%
Protocol: The yolk color of eggs obtained in Example 8 was measured using a colorimeter (CM-700d, Konica Minolta Inc.). FIGS. 14a to 14c show the measurement results of the L*, a*, and b* values, respectively.

[8] = cited from earlier work
[9] = cited from earlier work; remark: listed apart in the source
chickens [10] = experiment: Yolk carotenoid content and composition 2 (eggs of Examples 5 and 6); settings: corn contents of 30% to 50%; 1 to 16 ppm; fed 2 to 4 weeks
[11] = desired CF value 10, low-corn-content feed
[12] = desired CF value 11, low-corn-content feed
[13] = desired CF value 12, low-corn-content feed
[14] = desired CF value 13, low-corn-content feed
[15] = desired CF value 14, low-corn-content feed
[16] = desired CF value 10, 30% Corn feed
[17] = desired CF value 10, 50% Corn feed
[18] = desired CF value 11, 30% Corn feed
[19] = desired CF value 11, 50% Corn feed
[20] = desired CF value 12, 30% Corn feed
[21] = desired CF value 12, 50% Corn feed
[22] = desired CF value 13, 30% Corn feed
[23] = desired CF value 13, 50% Corn feed
[24] = desired CF value 14, 30% Corn feed
[25] = desired CF value 14, 50% Corn feed
[26] = desired CF value 15, 30% Corn feed
[27] = desired CF value 15, 50% Corn feed

Question: What does the source list for CC1=C(/C=C/C(C)=C/C=C/C(C)=C/C=C/C=C(C)/C=C/C=C(C)/C=C/C2=C(C)C(=O)[C@@H](O)CC2(C)C)C(C)(C)C[C@H](O)C1=O [Astaxanthin, astaxanthin]?
Answer: amount of astaxanthin relative to t-capsanthin to achieve the desired color fan value (Julia Light hens [1]; color fan value of 13, low-corn-content feed): approximately 51%; change of color fan value, low-corn-content vs standard-corn-content feed (Julia Light hens [1]; colorant added at 4 ppm): increased; CF value (Julia Light hens [1]; colorant added at 4 ppm, standard-corn-content feed): 12.8; Astaxanthin/t-Capsanthin ratio (Julia Light hens [1]; [11]): 0.56; Colorant concentration in feed necessary for achieving the desired CF value (Julia Light hens [1]; [11]): 1.0 ppm; Astaxanthin/t-Capsanthin ratio (Julia Light hens [1]; [12]): 0.54; Colorant concentration in feed necessary for achieving the desired CF value (Julia Light hens [1]; [12]): 1.3 ppm; Astaxanthin/t-Capsanthin ratio (Julia Light hens [1]; [13]): 0.53; Colorant concentration in feed necessary for achieving the desired CF value (Julia Light hens [1]; [13]): 1.7 ppm; Astaxanthin/t-Capsanthin ratio (Julia Light hens [1]; [14]): 0.51; Colorant concentration in feed necessary for achieving the desired CF value (Julia Light hens [1]; [14]): 2.2 ppm; Astaxanthin/t-Capsanthin ratio (Julia Light hens [1]; [15]): 0.53; Colorant concentration in feed necessary for achieving the desired CF value (Julia Light hens [1]; [15]): 3.2 ppm; Colorant concentration in feed necessary for achieving the desired CF value (Julia Light hens [1]; desired CF value 15, low-corn-content feed): 7.0 ppm; yolk colorant concentration, low-corn-content vs standard-corn-content feed (Julia Light hens [2]): greater than that in eggs obtained from chickens fed with the standard-corn-content feed; color fan value compared with t-capsanthin (chickens [3]; coloring agent 1 to 8 ppm): greater than those obtained using t-capsanthin; color fan value compared with t-capsanthin (chickens [3]; coloring agent 16 ppm): no significant difference; Astaxanthin/t-Capsanthin ratio (chickens [3]; [16]): 62%; Colorant concentration in feed to achieve desired CF value (chickens [3]; [16]): 1.3 ppm; Astaxanthin/t-Capsanthin ratio (chickens [3]; [17]): 58%; Colorant concentration in feed to achieve desired CF value (chickens [3]; [17]): 1.4 ppm; Astaxanthin/t-Capsanthin ratio (chickens [3]; [18]): 61%; Colorant concentration in feed to achieve desired CF value (chickens [3]; [18]): 1.7 ppm; Astaxanthin/t-Capsanthin ratio (chickens [3]; [19]): 61%; Colorant concentration in feed to achieve desired CF value (chickens [3]; [19]): 1.9 ppm; Astaxanthin/t-Capsanthin ratio (chickens [3]; [20]): 61%; Colorant concentration in feed to achieve desired CF value (chickens [3]; [20]): 2.2 ppm; Astaxanthin/t-Capsanthin ratio (chickens [3]; [21]): 63%; Colorant concentration in feed to achieve desired CF value (chickens [3]; [21]): 2.5 ppm; Astaxanthin/t-Capsanthin ratio (chickens [3]; [22]): 64%; Colorant concentration in feed to achieve desired CF value (chickens [3]; [22]): 3.0 ppm; Astaxanthin/t-Capsanthin ratio (chickens [3]; [23]): 65%; Colorant concentration in feed to achieve desired CF value (chickens [3]; [23]): 3.4 ppm; Astaxanthin/t-Capsanthin ratio (chickens [3]; [24]): 63%; Colorant concentration in feed to achieve desired CF value (chickens [3]; [24]): 4.0 ppm; Astaxanthin/t-Capsanthin ratio (chickens [3]; [25]): 69%; Colorant concentration in feed to achieve desired CF value (chickens [3]; [25]): 4.7 ppm; Astaxanthin/t-Capsanthin ratio (chickens [3]; [26]): 64%; Colorant concentration in feed to achieve desired CF value (chickens [3]; [26]): 6.3 ppm; Astaxanthin/t-Capsanthin ratio (chickens [3]; [27]): 82%; Colorant concentration in feed to achieve desired CF value (chickens [3]; [27]): 8.0 ppm; color fan value compared with t-capsanthin (chickens [4]): greater than that achieved by using t-capsanthin; a* value (red color) of yolk compared with t-capsanthin (chickens [5]): greater than that obtained with the addition of t-capsanthin; concentration transferred to the yolk compared with t-capsanthin (chickens [6]): greater than that of t-capsanthin; a* value (red color) of yolk in relation to corn content (chickens [7]): did not cause the a* value to significantly vary; singlet oxygen quenching activity, stronger compared with vitamin E [8]: about 500 fold; lipid peroxidation inhibition activity, stronger compared with vitamin E [9]: about 1000 fold; amount of colorant accumulated in the yolk in relation to corn content (chickens [10]): tended to increase as the corn content decreased
